Data as given in ChEMBL document CHEMBL2177104, “Identification of antitubercular benzothiazinone compounds by ligand-based design” (J Med Chem, 2012).
In brackets after ≈: the same amount, converted by molar mass. Activity calls are given as the source filed them. No cut-off for these calls is given here.

test system: not listed separately; experiment: Cytotoxicity against human HEK293 cells after 24 hrs by MTT assay; format: cell-based; details: not given

`CN(c1nc(=O)c2cc(C(F)(F)F)cc([N+](=O)[O-])c2s1)[C@H]1CCN(Cc2ccccc2)C1` and `O=c1nc(N2CCC(F)(F)CC2)sc2c([N+](=O)[O-])cc(C(F)(F)F)cc12` cannot be ordered by CC50 at 24 h: over 10 µM for the first, over 10 µM for the second.

`C[C@H]1COC2(CCN(c3nc(=O)c4cc(C(F)(F)F)cc([N+](=O)[O-])c4s3)CC2)O1` [BTZ-043] showed a CC50 at 24 h of over 10 µM.

test system: not listed separately; experiment: Cytotoxicity against human HeLa cells after 72 hrs by methylene blue staining; format: cell-based; details: not given

First: CN(c1nc(=O)c2cc(C(F)(F)F)cc([N+](=O)[O-])c2s1)[C@H]1CCN(Cc2ccccc2)C1
Second: C[C@H]1COC2(CCN(c3nc(=O)c4cc(C(F)(F)F)cc([N+](=O)[O-])c4s3)CC2)O1 [BTZ-043]
The CC50 at 72 h of the first is lower: 38 µM for the first, over 50 µM for the second.

test system: not listed separately; experiment: Kinetic solubility of the compound at pH 7.4; format: physicochemical; details: buffer

With `CN(C)C(=O)C1CCN(c2nc(=O)c3cc(C(F)(F)F)cc([N+](=O)[O-])c3s2)CC1` the Kinetic_solubility was “soluble”.
In the case of `CN(Cc1ccoc1)c1nc(=O)c2cc(C(F)(F)F)cc([N+](=O)[O-])c2s1`, the Kinetic_solubility is reported as “soluble”.

same assay, conditions: buffer, read-out: Kinetic_solubility

`O=c1nc(NCc2ccco2)sc2c([N+](=O)[O-])cc(C(F)(F)F)cc12` and `Cc1ccc(CNc2nc(=O)c3cc(C(F)(F)F)cc([N+](=O)[O-])c3s2)o1` are within 1.5-fold of each other in solubility kinetic: 1.63 µM (≈ 0.605 µg/mL) for the first, 1.82 µM (≈ 0.701 µg/mL) for the second.

Going from `CCN(CCN(C)C)c1nc(=O)c2cc(C(F)(F)F)cc([N+](=O)[O-])c2s1` to `CN(c1nc(=O)c2cc(C(F)(F)F)cc([N+](=O)[O-])c2s1)[C@H]1CCN(Cc2ccccc2)C1`, the solubility kinetic falls from 10.6 µM (≈ 4.14 µg/mL) to 2.97 µM (≈ 1.38 µg/mL) (3.6-fold).

First: O=C(c1ccoc1)N1CCN(c2nc(=O)c3cc(C(F)(F)F)cc([N+](=O)[O-])c3s2)CC1
Second: O=c1nc(N2CCC(F)(F)CC2)sc2c([N+](=O)[O-])cc(C(F)(F)F)cc12
The solubility kinetic of the first is 2.7-fold higher: 21.8 µM (≈ 9.91 µg/mL) for the first, 8.1 µM (≈ 3.2 µg/mL) for the second.

`C[C@H]1COC2(CCN(c3nc(=O)c4cc(C(F)(F)F)cc([N+](=O)[O-])c4s3)CC2)O1` [BTZ-043] gave a solubility kinetic of 6.8 µM (≈ 2.93 µg/mL).

test system: not listed separately; experiment: Chemical stability in buffer; format: physicochemical; details: not given

First: CN(c1nc(=O)c2cc(C(F)(F)F)cc([N+](=O)[O-])c2s1)[C@H]1CCN(Cc2ccccc2)C1
Second: O=c1nc(N2CCC(F)(F)CC2)sc2c([N+](=O)[O-])cc(C(F)(F)F)cc12
The Stability of the first is lower: 96% for the first, 101% for the second.

`C[C@H]1COC2(CCN(c3nc(=O)c4cc(C(F)(F)F)cc([N+](=O)[O-])c4s3)CC2)O1` [BTZ-043] gave a Stability of 98%.

test system: Plasma; experiment: Metabolic stability in mouse plasma; format: ADME, cell-free; details: not given

First: CN(c1nc(=O)c2cc(C(F)(F)F)cc([N+](=O)[O-])c2s1)[C@H]1CCN(Cc2ccccc2)C1
Second: O=c1nc(N2CCC(F)(F)CC2)sc2c([N+](=O)[O-])cc(C(F)(F)F)cc12
The Stability of the first is higher: 114% for the first, 92% for the second.

Compound `C[C@H]1COC2(CCN(c3nc(=O)c4cc(C(F)(F)F)cc([N+](=O)[O-])c4s3)CC2)O1` [BTZ-043] has a Stability of 97%.

test system: not listed separately; experiment: Therapeutic index, ratio of GI50 for human HUVEC cells to MIC for Mycobacterium smegmatis 700084; format: cell-based; details: read-out: TI

In the case of `C[C@H]1COC2(CCN(c3nc(=O)c4cc(C(F)(F)F)cc([N+](=O)[O-])c4s3)CC2)O1` [BTZ-043], the selectivity ratio is reported as 1190.

test system: Mycobacterium tuberculosis; experiment: Antimycobacterial activity against Mycobacterium tuberculosis H37Rv expressing GFP; format: functional; details: not given

`C[C@H]1COC2(CCN(c3nc(=O)c4cc(C(F)(F)F)cc([N+](=O)[O-])c4s3)CC2)O1` [BTZ-043] gave an MIC of 1 ng/mL (≈ 2.32 nM).

test system: Mycolicibacterium aurum; experiment: Antimycobacterial activity against Mycobacterium aurum SB66; format: functional, organism-based; details: not given

For `C[C@H]1COC2(CCN(c3nc(=O)c4cc(C(F)(F)F)cc([N+](=O)[O-])c4s3)CC2)O1` [BTZ-043], the Activity was “inactive”.

test system: not listed separately; experiment: Cytotoxicity against human HepG2 cells after 24 hrs by MTT assay; format: cell-based; details: not given

`CN(c1nc(=O)c2cc(C(F)(F)F)cc([N+](=O)[O-])c2s1)[C@H]1CCN(Cc2ccccc2)C1` and `O=c1nc(N2CCC(F)(F)CC2)sc2c([N+](=O)[O-])cc(C(F)(F)F)cc12` cannot be ordered by CC50 at 24 h: over 10 µM for the first, over 10 µM for the second.

For `C[C@H]1COC2(CCN(c3nc(=O)c4cc(C(F)(F)F)cc([N+](=O)[O-])c4s3)CC2)O1` [BTZ-043], the CC50 at 24 h was over 10 µM.

test system: Plasma; experiment: Metabolic stability in human plasma; format: ADME, cell-free; details: not given

First: CN(c1nc(=O)c2cc(C(F)(F)F)cc([N+](=O)[O-])c2s1)[C@H]1CCN(Cc2ccccc2)C1
Second: O=c1nc(N2CCC(F)(F)CC2)sc2c([N+](=O)[O-])cc(C(F)(F)F)cc12
The Stability of the first is higher: 92% for the first, 64% for the second.

Work on `C[C@H]1COC2(CCN(c3nc(=O)c4cc(C(F)(F)F)cc([N+](=O)[O-])c4s3)CC2)O1` [BTZ-043] yielded a Stability of 107%.

test system: Mycobacterium tuberculosis; experiment: Ratio of isoniazid MIC to compound MIC for Mycobacterium tuberculosis H37Rv; format: functional; details: not given

In the case of `C[C@H]1COC2(CCN(c3nc(=O)c4cc(C(F)(F)F)cc([N+](=O)[O-])c4s3)CC2)O1` [BTZ-043], the Ratio is reported as 20.

test system: not listed separately; experiment: Antiproliferative activity against human HUVEC cells after 72 hrs by methylene blue staining; format: cell-based; details: not given

Going from `CN(c1nc(=O)c2cc(C(F)(F)F)cc([N+](=O)[O-])c2s1)[C@H]1CCN(Cc2ccccc2)C1` to `C[C@H]1COC2(CCN(c3nc(=O)c4cc(C(F)(F)F)cc([N+](=O)[O-])c4s3)CC2)O1` [BTZ-043], the GI50 at 72 h falls from 18 µM to 8 µM (2.2-fold).

test system: not listed separately; experiment: Antiproliferative activity against human K562 cells after 72 hrs by electronic cell analysis; format: cell-based; details: not given

First: CN(c1nc(=O)c2cc(C(F)(F)F)cc([N+](=O)[O-])c2s1)[C@H]1CCN(Cc2ccccc2)C1
Second: C[C@H]1COC2(CCN(c3nc(=O)c4cc(C(F)(F)F)cc([N+](=O)[O-])c4s3)CC2)O1 [BTZ-043]
The GI50 at 72 h of the first is 2.7-fold higher: 30 µM for the first, 11 µM for the second.

test system: Mycolicibacterium smegmatis; experiment: Antimycobacterial activity against Mycobacterium smegmatis 700084 after 48 hrs by broth microdilution assay; format: functional; details: Mycolicibacterium smegmatis, 700084, 48 h

Compared with `CN(c1nc(=O)c2cc(C(F)(F)F)cc([N+](=O)[O-])c2s1)[C@H]1CCN(Cc2ccccc2)C1`, `O=c1nc(N2CCC(F)(F)CC2)sc2c([N+](=O)[O-])cc(C(F)(F)F)cc12` is 62-fold higher in MIC: 4 ng/mL (≈ 8.61 nM) for the first, 250 ng/mL (≈ 632 nM) for the second.

In the case of `C[C@H]1COC2(CCN(c3nc(=O)c4cc(C(F)(F)F)cc([N+](=O)[O-])c4s3)CC2)O1` [BTZ-043], the MIC is reported as 8 ng/mL (≈ 18.5 nM).

test system: Mycolicibacterium fortuitum; experiment: Antimycobacterial activity against Mycobacterium fortuitum B; format: functional; details: not given

Going from `O=c1nc(N2CCC(F)(F)CC2)sc2c([N+](=O)[O-])cc(C(F)(F)F)cc12` to `C[C@H]1COC2(CCN(c3nc(=O)c4cc(C(F)(F)F)cc([N+](=O)[O-])c4s3)CC2)O1` [BTZ-043], the MIC falls from over 100 ng/mL to 1.56 ng/mL (≈ 3.62 nM).

test system: Liver; experiment: Metabolic stability in mouse liver microsomes; format: ADME, Microsome; details: not given

First: CN(c1nc(=O)c2cc(C(F)(F)F)cc([N+](=O)[O-])c2s1)[C@H]1CCN(Cc2ccccc2)C1
Second: O=c1nc(N2CCC(F)(F)CC2)sc2c([N+](=O)[O-])cc(C(F)(F)F)cc12
The Stability of the first is lower: 7% for the first, 80% for the second.

Work on `C[C@H]1COC2(CCN(c3nc(=O)c4cc(C(F)(F)F)cc([N+](=O)[O-])c4s3)CC2)O1` [BTZ-043] yielded a Stability of 45%.

test system: Liver microsomes; experiment: Metabolic stability in human liver microsomes; format: ADME, Microsome; details: not given

Going from `CN(c1nc(=O)c2cc(C(F)(F)F)cc([N+](=O)[O-])c2s1)[C@H]1CCN(Cc2ccccc2)C1` to `O=c1nc(N2CCC(F)(F)CC2)sc2c([N+](=O)[O-])cc(C(F)(F)F)cc12`, the Stability rises from 6% to 61%.

Work on `C[C@H]1COC2(CCN(c3nc(=O)c4cc(C(F)(F)F)cc([N+](=O)[O-])c4s3)CC2)O1` [BTZ-043] yielded a Stability of 98%.

test system: not listed separately; experiment: Therapeutic index, ratio of GI50 for human K562 cells to MIC for Mycobacterium smegmatis 700084; format: cell-based; details: read-out: TI

Compound `C[C@H]1COC2(CCN(c3nc(=O)c4cc(C(F)(F)F)cc([N+](=O)[O-])c4s3)CC2)O1` [BTZ-043] has a selectivity ratio of 1190.

test system: not listed separately; experiment: Therapeutic index, ratio of CC50 for human HeLa cells to MIC for Mycobacterium smegmatis 700084; format: cell-based; details: read-out: TI

For `C[C@H]1COC2(CCN(c3nc(=O)c4cc(C(F)(F)F)cc([N+](=O)[O-])c4s3)CC2)O1` [BTZ-043], the selectivity ratio was over 6250.
